Patent publication US12344631B2, “C17 polar-substituted heteroaromatic synthetic triterpenoids and methods of use thereof” (REATA PHARMACEUTICALS, INC., priority 2019, dated 2025)

What was measured:
[1] = tested on: AREc32 reporter cell line (antioxidant response element of rat Gsta2, Nrf2 target gene); assay: AREc32 luciferase reporter activation; type: cell-based, human; settings: for AREc32 EC2X Relative to RTA 402 (fold) (Mean ± SD): average of ratios from replicate experiments, benchmark RTA 402; for EC (2-fold): human, Arec32, 19 h, concentration increasing luminescence signal 2-fold above vehicle, nineteen hours, read-out: AREc32 EC2X (nM) (Mean ± SD); for AREc32 Relative to CC in Same Experiment (Mean ± SD): average of ratios from experiments with direct comparisons
Method: […] The effect of several compounds disclosed herein on luciferase reporter activation was assessed in the AREc32 reporter cell line (see Table 10 and Table 11). This cell line is derived from human breast carcinoma MCF-7 cells and is stably transfected with a luciferase reporter gene under the transcriptional control of eight copies of the antioxidant response element from the rat Gsta2 gene, an Nrf2 target gene ([…] et al., 1990). […] Twenty-four hours after plating, cells were treated with vehicle (DMSO) or test compounds at concentrations ranging from 0.03 to 1000 nM for nineteen hours. Media was removed and 100 μL of 1:1 mixture of the One-Glo Luciferase assay reagent and culture medium was added to each well. After incubation for 5 min at room temperature, the luminescence signal was measured on a PHERAstar plate reader. The EC2X value was determined using Excel and GraphPad Prism software. The fold increase in luminescence signal for cells treated with each concentration of compound relative to cells treated with vehicle was determined and a dose-response curve was generated. The dose-response curve was fit using nonlinear regression analysis and used to extrapolate the EC2X value.

[2] = tested on: RAW 264.7 cells; assay: Nitric oxide suppression assay (IFNγ-induced NO production); type: cell-based, mouse; settings: for IC50: Mus musculus, RAW264.7, RAW 264.7 cells, 2 h pretreatment, 20 ng/mL interferon gamma 24 h, nitrite by Griess, read-out: NO IC50 (nM) (Mean ± SD); for NO IC50 Relative to RTA 402 (fold) (Mean ± SD): average of ratios from replicate experiments, benchmark RTA 402
Method: Tissue Culture. RAW 264.7, a mouse macrophage cell line, was obtained from American Type Culture Collection (Manassas VA) and maintained in the log phase of growth in Roswell Park Memorial Institute Medium 1640 (RPMI 1640) supplemented with 10% heat inactivated fetal bovine serum (FBS) and 1% penicillin-streptomycin. Cells were cultured and maintained in a humidified incubator at 37° C. under 5% CO2. Cells were sub-cultured every 3 days. […] All cell culture supplies were obtained from Life Technologies (Grand Island, NY) and VWR (Radnor, PA). Nitric Oxide Suppression Assay. RAW 264.7 cells were plated 1 day in advance of experimental treatments at a concentration of 30,000 cells per well onto Falcon-96 well clear bottom plates (Corning, NY) in a total volume of 200 μL per well using RPMI 1640 supplemented with 0.5% fetal bovine serum and 1% penicillin-streptomycin. The next day, cells were pretreated with compounds serially diluted from 1000× stocks. All compounds were dissolved in dimethyl sulfoxide (DMSO) at 10 mM stock solutions. Compounds were subsequently diluted in DMSO and RPMI 1640. Each well received a final concentration of 0.1% DMSO. Cells were pretreated for 2 hours and incubation at 37° C., followed by treatment with 20 ng/mL of interferon gamma (R&D Systems, Minneapolis, MN) per well for 24 hours. […] Afterwards, 50 μL of cell culture supernatant was transferred from each well into a new Falcon-96 well clear bottom plate. […] Afterwards, air bubbles were removed using ethanol vapor and absorbance was measured using a Spectramax M2e plate reader with a wavelength set to 525 nm. Viability was assessed using WST-1 cell proliferation reagent from Roche (Basel, Switzerland). After media was removed for the Nitric Oxide suppression assay, 15 μL of WST-1 reagent was added to each well of cells. Plates were briefly mixed on an orbital shaker and the cells were incubated at 37° C. for 30 minutes. Absorbance was measured using a Spectramax M2e plate reader with wavelengths set to 440 nm and 700 nm. For the ability of compounds to suppress the increase in nitric oxide release caused by interferon gamma, the absolute amount of nitrite that was produced in each well was extrapolated from the nitrite standards using a linear regression fit. All values were then normalized to the DMSO-interferon gamma treated wells and plotted as percent nitric oxide. IC50 values were calculated with a dependence on WST1 viability using Excel and/or GraphPad Prism (San Diego, CA).

[3] = tested on: AML-12 hepatocyte cell line; assay: Glutathione assay (total glutathione, GSH-Glo); type: cell-based, mouse; settings: for EC50: Mus musculus, AML12, AML-12 cells, 24 hours, total glutathione, read-out: GSH EC50 (nM) (Mean ± SD); for GSH EC50 Relative to RTA 402 (fold) (Mean ± SD): benchmark RTA 402
Method: The effect of compound treatment on total glutathione levels was evaluated in the mouse AML-12 hepatocyte cell line. Glutathione—a tripeptide consisting of cysteine, glutamate, and glycine—is the major thiol-containing protein within the cell and regulates cellular redox balance. Glutathione also plays important roles in detoxification, protein glutathionylation, and iron-sulfur cluster biogenesis (Bachhawat and Yadav, 2018). Nrf2 regulates the expression of many genes involved in glutathione synthesis and metabolism, including both subunits of glutamate cysteine ligase (GCL), the enzyme that catalyzes the rate limiting step of glutathione biosynthesis (Thimmulappa et al., 2002). […] The next day, cells were treated with vehicle (DMSO) or test compound (0.03 nM to 1000 nM). Each well received a final concentration of 0.1% DMSO. Cells were incubated at 37° C., 5% CO2 for 24 hours. Total glutathione concentrations were measured using the GSH-Glo Glutathione Assay kit (Promega) according to the manufacturer's instructions. Briefly, a standard curve was prepared by serially diluting the provided glutathione solution. […] After a 30-minute incubation at room temperature, 100 μL of Luciferin detection reagent was added to all sample and standard wells and incubated for 15 minutes. Luminescence was measured using a PHERAstar plate reader. The EC50 value was determined using Excel and GraphPad Prism software. The basal concentration of glutathione was set to 0% and the highest concentration of glutathione produced following treatment with a test compound was set to 100% and a dose-response curve was generated. The dose-response curve was fit using nonlinear regression analysis and used to extrapolate the EC50 value.

| SMILES | AREc32 EC2X Relative to RTA 402 (fold) (Mean ± SD) [1] | EC (2-fold) [1] | IC50 [2] | NO IC50 Relative to RTA 402 (fold) (Mean ± SD) [2] | EC50 [3] | GSH EC50 Relative to RTA 402 (fold) (Mean ± SD) [3] | AREc32 Relative to CC in Same Experiment (Mean ± SD) ([1]; comparison compound CC1) | AREc32 Relative to CC in Same Experiment (Mean ± SD) ([1]; comparison compound CC3) | AREc32 Relative to CC in Same Experiment (Mean ± SD) ([1]; comparison compound CC2) |
| --- | --- | --- | --- | --- | --- | --- | --- | --- | --- |
| CC1(C)CC[C@]2(c3noc(CO)n3)CC[C@]3(C)[C@H](C(=O)C=C4[C@@]5(C)C=C(C#N)C(=O)C(C)(C)[C@@H]5CC[C@]43C)[C@@H]2C1 [Compound T4] | 1.04 ± 0.02 fold | 10.5 ± 1.03 nM | 1.82 nM | 0.48 ± 0.13 fold | 2.46 ± 1.8 nM | 0.89 ± 0.61 fold | – | – | – |
| CCc1nnc([C@]23CCC(C)(C)C[C@H]2[C@H]2C(=O)C=C4[C@@]5(C)C=C(C#N)C(=O)C(C)(C)[C@@H]5CC[C@@]4(C)[C@]2(C)CC3)o1 [Compound T46] | 1.60 ± 0.44 fold | 24 ± 1.5 nM | 5.44 ± 2.81 nM | 1.60 ± 0.29 fold | 2.39 ± 0.29 nM | 1.24 ± 0.17 fold | – | – | – |
| CC1(C)CC[C@]2(c3noc(CCO)n3)CC[C@]3(C)[C@H](C(=O)C=C4[C@@]5(C)C=C(C#N)C(=O)C(C)(C)[C@@H]5CC[C@]43C)[C@@H]2C1 [Compound T5] | 1.16 ± 0.19 fold | 11.7 ± 2.8 nM | 1.57 nM | 0.42 ± 0.15 fold | 1.77 ± 0.98 nM | 0.65 ± 0.32 fold | – | – | – |
| CCc1nc([C@]23CCC(C)(C)C[C@H]2[C@H]2C(=O)C=C4[C@@]5(C)C=C(C#N)C(=O)C(C)(C)[C@@H]5CC[C@@]4(C)[C@]2(C)CC3)no1 [Compound T24] | 2.50 ± 0.66 fold | 32.2 ± 2.59 nM | 9.21 nM | 2.56 ± 0.62 fold | 6.11 ± 2.23 nM | 2.53 ± 0.52 fold | – | – | – |
| CC1(C)CC[C@]2(c3noc(CCN)n3)CC[C@]3(C)[C@H](C(=O)C=C4[C@@]5(C)C=C(C#N)C(=O)C(C)(C)[C@@H]5CC[C@]43C)[C@@H]2C1 [Compound T3] | 0.91 ± 0.29 fold | 9.21 ± 3.66 nM | 2.6 nM | 0.69 ± 0.22 fold | 1.45 ± 0.28 nM | 0.54 ± 0.06 fold | – | – | – |
| CC1(C)CC[C@]2(c3nnc(C(F)F)o3)CC[C@]3(C)[C@H](C(=O)C=C4[C@@]5(C)C=C(C#N)C(=O)C(C)(C)[C@@H]5CC[C@]43C)[C@@H]2C1 [Compound T44] | 0.57 ± 0.12 fold | 8.62 ± 0.45 nM | 4.24 ± 2.23 nM | 1.24 ± 0.04 fold | 2.05 ± 0.64 nM | 1.04 ± 0.06 fold | 0.91 ± 0.21 | – | – |
| C[C@@H]1C(=O)C(C#N)=C[C@]2(C)C3=CC(=O)[C@@H]4[C@@H]5CC(C)(C)CC[C@]5(c5nc(C(F)F)no5)CC[C@@]4(C)[C@]3(C)CC[C@@H]12 [Compound T35] | 0.73 ± 0.14 fold | 10.7 ± 1.02 nM | 5.48 ± 3.04 nM | 1.21 ± 0.21 fold | 1.99 ± 0.42 nM | 1.02 ± 0.04 fold | – | 1.66 ± 0.31 | – |
| CC1(C)CC[C@]2(c3noc(C4CC4)n3)CC[C@]3(C)[C@H](C(=O)C=C4[C@@]5(C)C=C(C#N)C(=O)C(C)(C)[C@@H]5CC[C@]43C)[C@@H]2C1 [Compound T25] | 4.39 ± 0.23 fold | 44 ± 1.2 nM | 11.2 ± 2.09 nM | 3.08 ± 1.54 fold | 9.07 ± 1.55 nM | 3.36 ± 0.34 fold | – | – | – |
| C[C@@H]1C(=O)C(C#N)=C[C@]2(C)C3=CC(=O)[C@@H]4[C@@H]5CC(C)(C)CC[C@]5(c5nc(C(F)(F)F)no5)CC[C@@]4(C)[C@]3(C)CC[C@@H]12 [Compound T36] | 2.25 ± 0.31 fold | 33.7 ± 6.99 nM | 17.8 ± 9.89 nM | 3.95 ± 0.84 fold | 10.4 ± 1.62 nM | 5.40 ± 0.54 fold | – | – | – |
| CC1(C)CC[C@]2(c3nc(CCN)no3)CC[C@]3(C)[C@H](C(=O)C=C4[C@@]5(C)C=C(C#N)C(=O)C(C)(C)[C@@H]5CC[C@]43C)[C@@H]2C1 [Compound T16] | 0.30 ± 0.00 fold | 3.56 ± 0.31 nM | 1.26 ± 0.12 nM | 0.94 ± 0.19 fold | 0.58 ± 0.04 nM | 0.46 ± 0.09 fold | – | – | – |
| CC1(C)CC[C@]2(c3nc(C(F)F)no3)CC[C@]3(C)[C@H](C(=O)C=C4[C@@]5(C)C=C(C#N)C(=O)C(C)(C)[C@@H]5CC[C@]43C)[C@@H]2C1 [Compound T43] | 0.62 ± 0.09 fold | 9.92 ± 2.32 nM | 6.45 ± 1.29 nM | 1.90 ± 0.49 fold | 3.29 ± 0.55 nM | 1.60 ± 0.05 fold | – | – | 1.09 ± 0.09 |
| CC1(C)CC[C@]2(c3nnn(CCO)n3)CC[C@]3(C)[C@H](C(=O)C=C4[C@@]5(C)C=C(C#N)C(=O)C(C)(C)[C@@H]5CC[C@]43C)[C@@H]2C1 [Compound T7] | 1.10 ± 0.33 fold | 10.5 ± 3.66 nM | 1.13 ± 0.18 nM | 0.43 ± 0.13 fold | 2.87 ± 3.17 nM | 0.80 ± 0.59 fold | – | – | – |
| CC1(C)CC[C@]2(c3noc(C(F)(F)F)n3)CC[C@]3(C)[C@H](C(=O)C=C4[C@@]5(C)C=C(C#N)C(=O)C(C)(C)[C@@H]5CC[C@]43C)[C@@H]2C1 [Compound T40] | 4.76 ± 0.93 fold | 64.9 ± 12.6 nM | 24.2 ± 7.64 nM | 7.76 ± 2.19 fold | 18.3 ± 2.19 nM | 8.96 ± 0.68 fold | – | – | – |
